Where a name gives a salt, the structure may show the parent alone.
How the values were obtained:
[1] = tested on: Hek293 cells without cotransfection of any receptor; test: MeNArC and EeNArC negative controls, Hek293 without cotransfection of any receptor; format: cell-based, human; settings: 10 µM agonist
[2] = target: MOR (Homo sapiens, UniProt P35372); format: cell-based
[3] = tested on: MOR 11S/T-A; test: MeNArC β-arrestin2 recruitment assay, MOR 11S/T-A mutant, Hek293; format: cell-based
[4] = target: T1, D2R (Homo sapiens, UniProt P14416); test: cell-based; format: cell-based
T1 construct: expressed in transfected cells; host or cells: Hek293 (D2R cotransfected with GRK2, MeN and ArC)

[5] = target: T2, AT1R (Homo sapiens, UniProt P30556); test: MeNArC β-arrestin membrane recruitment assay, unmodified AT1R, Hek293; format: cell-based
T2 construct: signal peptide (N); expressed in transfected cells; host or cells: Hek293
T2 sequence (P30556 1-359): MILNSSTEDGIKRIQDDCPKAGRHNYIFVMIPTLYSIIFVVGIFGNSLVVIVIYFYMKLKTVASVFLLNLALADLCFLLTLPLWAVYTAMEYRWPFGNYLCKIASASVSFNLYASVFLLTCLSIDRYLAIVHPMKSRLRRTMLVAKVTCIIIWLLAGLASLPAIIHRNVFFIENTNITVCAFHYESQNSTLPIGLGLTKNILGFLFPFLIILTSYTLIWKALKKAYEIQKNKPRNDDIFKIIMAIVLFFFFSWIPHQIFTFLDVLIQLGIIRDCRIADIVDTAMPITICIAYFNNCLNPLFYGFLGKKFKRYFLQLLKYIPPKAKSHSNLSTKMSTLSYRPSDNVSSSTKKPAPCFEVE

[6] = target: T3, FKBP / FRB (UniProt P42345+Q62658); test: rapamycin-induced dimerization of FKBP and FRB fused to the N- and C-terminal NanoLuc fragments; format: cell-based; settings: 50 nM rapamycin; Hek293 cotransfected with both fragments
T3 construct: expressed in transfected cells; host or cells: Hek293

[7] = target: T2, AT1R; test: EeNArC β-arrestin early endosome recruitment assay, unmodified AT1R, Hek293; format: cell-based; settings: 450 mM sucrose, Ang II, early endosomes

T1 sequence (P14416 1-414 isoform P14416-2): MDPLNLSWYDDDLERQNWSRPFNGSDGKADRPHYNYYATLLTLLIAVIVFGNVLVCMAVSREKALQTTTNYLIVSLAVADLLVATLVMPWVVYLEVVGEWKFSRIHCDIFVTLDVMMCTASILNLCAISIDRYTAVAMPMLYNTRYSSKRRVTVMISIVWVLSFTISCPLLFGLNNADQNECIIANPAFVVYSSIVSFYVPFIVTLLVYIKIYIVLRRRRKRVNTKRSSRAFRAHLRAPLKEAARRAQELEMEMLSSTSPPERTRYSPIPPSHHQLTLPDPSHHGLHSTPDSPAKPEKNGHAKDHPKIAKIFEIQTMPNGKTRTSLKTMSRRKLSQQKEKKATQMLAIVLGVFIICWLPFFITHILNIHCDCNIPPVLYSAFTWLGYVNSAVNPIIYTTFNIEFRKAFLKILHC
T3 sequence (Q62658 3-108): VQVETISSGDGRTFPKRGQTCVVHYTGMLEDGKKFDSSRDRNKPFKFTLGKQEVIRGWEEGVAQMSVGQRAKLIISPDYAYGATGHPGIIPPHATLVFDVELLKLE
T3 sequence (P42345 2012-2144): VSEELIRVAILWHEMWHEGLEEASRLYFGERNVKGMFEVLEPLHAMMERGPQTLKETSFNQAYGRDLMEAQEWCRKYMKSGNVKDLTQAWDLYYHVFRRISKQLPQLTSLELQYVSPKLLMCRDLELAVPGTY
Sequence of MOR (P35372 whole entry): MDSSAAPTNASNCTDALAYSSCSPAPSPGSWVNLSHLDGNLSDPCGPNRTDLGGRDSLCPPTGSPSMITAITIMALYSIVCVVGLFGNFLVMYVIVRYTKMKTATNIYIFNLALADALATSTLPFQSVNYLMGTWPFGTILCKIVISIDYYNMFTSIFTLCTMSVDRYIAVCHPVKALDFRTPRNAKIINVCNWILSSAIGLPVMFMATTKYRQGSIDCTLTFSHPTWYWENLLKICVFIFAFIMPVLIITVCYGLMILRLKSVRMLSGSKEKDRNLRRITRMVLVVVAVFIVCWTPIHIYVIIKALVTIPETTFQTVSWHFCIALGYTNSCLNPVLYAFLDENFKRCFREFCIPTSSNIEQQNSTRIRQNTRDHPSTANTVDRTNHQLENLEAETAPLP
Sequence of MOR (P32121 whole entry partner): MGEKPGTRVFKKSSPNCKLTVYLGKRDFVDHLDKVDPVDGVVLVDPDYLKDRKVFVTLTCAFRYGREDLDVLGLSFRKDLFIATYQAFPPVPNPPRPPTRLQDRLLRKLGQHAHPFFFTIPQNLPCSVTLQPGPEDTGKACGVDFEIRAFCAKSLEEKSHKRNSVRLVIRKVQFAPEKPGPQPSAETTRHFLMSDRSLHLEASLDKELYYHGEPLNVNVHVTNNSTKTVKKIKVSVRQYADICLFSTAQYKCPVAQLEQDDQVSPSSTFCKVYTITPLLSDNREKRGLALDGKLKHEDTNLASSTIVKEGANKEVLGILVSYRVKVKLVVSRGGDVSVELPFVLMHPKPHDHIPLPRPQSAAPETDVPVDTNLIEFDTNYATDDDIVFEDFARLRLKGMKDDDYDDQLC

**Q.** How did the “response in MeNArC and EeNArC assays without receptor” value [1] turn out when CC[C@H](C)[C@H](NC(=O)[C@H](Cc1ccc(O)cc1)NC(=O)[C@@H](NC(=O)[C@H](CCCNC(=N)N)NC(=O)[C@@H](N)CC(=O)O)C(C)C)C(=O)N[C@@H](Cc1c[nH]cn1)C(=O)N1CCC[C@H]1C(=O)N[C@@H](Cc1ccccc1)C(=O)O [Ang II, Angiotensin II] was run?
**A.** no response was observed

**Q.** For C[C@@H](NC(=O)[C@@H](N)Cc1ccc(O)cc1)C(=O)NCC(=O)N(C)[C@@H](Cc1ccccc1)C(=O)NCCO [DAMGO, [D-Ala^2, N-MePhe^4, Gly-ol]-enkephalin], which “response in MeNArC and EeNArC assays without receptor” value [1] is on record?
**A.** no response was observed

**Q.** And the EC80 [2]?
**A.** 60 nM

**Q.** And the pEC50 ± SD ([3]; MOR 11S/T-A, β-arrestin2)?
**A.** 6.82 ± 0.19

**Q.** What about the “efficacy for MOR 11S/T-A compared with WT MOR” value ([3]; from fold changes) of the same molecule?
**A.** 65%

**Q.** With CCCN1CCCC(c2cccc(O)c2)C1 (stereo not shown) [PPP, (3-hydroxyphenyl)-N-propylpiperidine] as the molecule, how does the “efficacy compared with dopamine” value [4] read?
**A.** 10%

**Q.** For CC(C)C[C@H]1C(=O)N2CCC[C@H]2[C@]2(O)O[C@](NC(=O)[C@@H]3C=C4c5cccc6[nH]c(Br)c(c56)C[C@H]4N(C)C3)(C(C)C)C(=O)N12 [bromocriptine], which EC50 [4] is on record?
**A.** 66.1 nM

**Q.** What about the “efficacy compared with dopamine” value [4] of the same molecule?
**A.** 46%

**Q.** Which “response in MeNArC and EeNArC assays without receptor” value [1] does the source give for NCCc1ccc(O)c(O)c1 [dopamine, Dopamine hydrochloride] here?
**A.** no response was observed

**Q.** CCCc1nc(C(C)(C)O)c(C(=O)O)n1Cc1ccc(-c2ccccc2-c2nnn[nH]2)cc1 [olmesartan] was tested. Which “reversal of agonist-induced β-arrestin recruitment by antagonist added after agonist” value ([5]; 0.1 μM Ang II pretreatment, absence or presence of sucrose) did it give?
**A.** could not be reversed

**Q.** How did the “increase of basal luminescence signal by addition of rapamycin” value [6] turn out when CO[C@H]1C[C@@H]2CC[C@@H](C)[C@@](O)(O2)C(=O)C(=O)N2CCCC[C@H]2C(=O)O[C@H]([C@H](C)C[C@@H]2CC[C@@H](O)[C@H](OC)C2)CC(=O)[C@H](C)/C=C(\C)[C@@H](O)[C@@H](OC)C(=O)[C@H](C)C[C@H](C)/C=C/C=C/C=C/1C [rapamycin] was run?
**A.** ~30 fold

**Q.** What does the source list for OC[C@H]1O[C@@](CO)(O[C@H]2O[C@H](CO)[C@@H](O)[C@H](O)[C@H]2O)[C@@H](O)[C@@H]1O [sucrose]?
**A.** effect of sucrose on agonist response ([5]; 450 mM sucrose, Ang II response, plasma membrane): no effect on agonist response; effect of sucrose on agonist effect [7]: dramatically blunted

**Q.** With CCN1CCCC1CNC(=O)c1cc(S(N)(=O)=O)ccc1OC (stereo not shown) [sulpiride] as the molecule, how does the “effect of antagonist on agonist-induced luminescence” value [4] read?
**A.** strong decay in luminescence down to baseline

**Q.** What does the source list for CCN(CC)C(=O)N[C@H]1C[C@@H]2c3cccc4[nH]cc(c34)C[C@H]2N(C)C1 [terguride, Terguride]?
**A.** EC50 [4]: 9.55 nM; efficacy compared with dopamine [4]: 24%

Reference: PMC8027564, “A novel luminescence-based β-arrestin recruitment assay for unmodified receptors” (The Journal of Biological Chemistry, 2021)
